The source of these data is US20260151492A1 (priority 2022, published 2026).

For one assay, the target named is Opiate μ (Homo sapiens, UniProt P35372). Put plainly: Opiate μ binding assay.
The next assay deals with Opiate k (Homo sapiens, UniProt P41145). Put plainly: Opiate k binding assay.
Assay [1] deals with T1, Sigma 2 (Homo sapiens, UniProt Q5BJF2). Put plainly: Sigma 2 binding assay.
Assay [2] concerns the target T2, DRD2L (Homo sapiens, UniProt P14416). Put plainly: D2L human dopamine GPCR cell based agonist cAMP assay.
The target of the next assay is NMDAR 1A/2B (Homo sapiens, UniProt Q05586+Q13224). Put plainly: NMDAR 1A/2B antagonist (ion channel blocker) assay. Type of assay: cell-based.
The target of assay [3] is T1, Sigma 2. As to conditions: literature (Pergolizi, 2023; Bonaventura, 2021); cited from earlier work.
For assay [4], the target named is T2, DRD2L. As to conditions: statement on ketamine, no own data shown; cited from earlier work.
Another assay deals with Mecp2-null mice. As to conditions: cited from earlier work.

Where two headings read alike, the source gives them in different places.

NMDAR 1A/2B, sequence (Q13224 27-1484, other chains not shown): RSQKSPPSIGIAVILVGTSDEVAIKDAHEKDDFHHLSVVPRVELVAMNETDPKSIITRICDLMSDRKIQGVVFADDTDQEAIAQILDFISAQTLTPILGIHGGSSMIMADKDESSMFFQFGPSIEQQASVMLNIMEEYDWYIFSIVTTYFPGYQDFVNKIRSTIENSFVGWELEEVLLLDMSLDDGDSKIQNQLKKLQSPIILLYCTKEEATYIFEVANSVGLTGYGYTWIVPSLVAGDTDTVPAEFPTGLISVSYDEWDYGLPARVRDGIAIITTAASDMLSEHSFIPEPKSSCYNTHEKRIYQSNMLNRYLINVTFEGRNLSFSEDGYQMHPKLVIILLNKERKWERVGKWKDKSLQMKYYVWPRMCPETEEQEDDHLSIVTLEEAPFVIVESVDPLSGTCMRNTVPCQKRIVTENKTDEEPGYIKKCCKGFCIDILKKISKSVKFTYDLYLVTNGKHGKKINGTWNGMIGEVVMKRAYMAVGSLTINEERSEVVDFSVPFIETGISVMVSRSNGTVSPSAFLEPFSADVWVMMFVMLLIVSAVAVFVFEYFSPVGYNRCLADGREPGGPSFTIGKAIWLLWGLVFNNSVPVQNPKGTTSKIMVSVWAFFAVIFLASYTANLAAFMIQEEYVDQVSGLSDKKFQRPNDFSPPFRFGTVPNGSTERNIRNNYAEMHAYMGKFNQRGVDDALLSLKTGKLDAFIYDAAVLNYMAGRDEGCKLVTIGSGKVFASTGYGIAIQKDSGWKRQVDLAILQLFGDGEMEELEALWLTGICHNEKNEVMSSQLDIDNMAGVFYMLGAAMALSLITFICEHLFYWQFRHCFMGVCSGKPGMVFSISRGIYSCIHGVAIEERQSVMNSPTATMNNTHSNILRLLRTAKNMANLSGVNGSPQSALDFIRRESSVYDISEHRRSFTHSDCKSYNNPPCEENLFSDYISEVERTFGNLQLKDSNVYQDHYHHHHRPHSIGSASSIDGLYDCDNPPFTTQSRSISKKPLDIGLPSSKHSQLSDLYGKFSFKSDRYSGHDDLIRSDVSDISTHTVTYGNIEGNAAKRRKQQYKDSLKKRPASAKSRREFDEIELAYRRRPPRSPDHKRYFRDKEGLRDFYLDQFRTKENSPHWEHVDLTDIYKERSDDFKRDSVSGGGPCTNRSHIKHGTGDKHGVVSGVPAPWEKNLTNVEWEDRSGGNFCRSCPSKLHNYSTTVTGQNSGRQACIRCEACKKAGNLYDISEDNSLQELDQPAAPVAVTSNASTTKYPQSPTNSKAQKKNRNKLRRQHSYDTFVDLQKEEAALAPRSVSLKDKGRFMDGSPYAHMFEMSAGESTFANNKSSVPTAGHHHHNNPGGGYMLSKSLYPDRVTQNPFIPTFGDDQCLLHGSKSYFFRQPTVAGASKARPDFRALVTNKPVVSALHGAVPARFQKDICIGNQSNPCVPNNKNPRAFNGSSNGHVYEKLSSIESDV
Opiate k, sequence (P41145 whole entry): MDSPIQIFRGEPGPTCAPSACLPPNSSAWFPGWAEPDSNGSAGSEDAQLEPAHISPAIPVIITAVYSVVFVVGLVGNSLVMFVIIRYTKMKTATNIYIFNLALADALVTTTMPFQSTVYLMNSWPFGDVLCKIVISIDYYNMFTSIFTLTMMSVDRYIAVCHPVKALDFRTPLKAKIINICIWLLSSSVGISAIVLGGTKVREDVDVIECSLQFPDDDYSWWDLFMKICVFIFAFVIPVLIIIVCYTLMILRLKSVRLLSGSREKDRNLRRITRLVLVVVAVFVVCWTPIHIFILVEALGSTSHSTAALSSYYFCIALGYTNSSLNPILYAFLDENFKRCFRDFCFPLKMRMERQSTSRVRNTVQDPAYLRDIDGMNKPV
T2 sequence (P14416 whole entry): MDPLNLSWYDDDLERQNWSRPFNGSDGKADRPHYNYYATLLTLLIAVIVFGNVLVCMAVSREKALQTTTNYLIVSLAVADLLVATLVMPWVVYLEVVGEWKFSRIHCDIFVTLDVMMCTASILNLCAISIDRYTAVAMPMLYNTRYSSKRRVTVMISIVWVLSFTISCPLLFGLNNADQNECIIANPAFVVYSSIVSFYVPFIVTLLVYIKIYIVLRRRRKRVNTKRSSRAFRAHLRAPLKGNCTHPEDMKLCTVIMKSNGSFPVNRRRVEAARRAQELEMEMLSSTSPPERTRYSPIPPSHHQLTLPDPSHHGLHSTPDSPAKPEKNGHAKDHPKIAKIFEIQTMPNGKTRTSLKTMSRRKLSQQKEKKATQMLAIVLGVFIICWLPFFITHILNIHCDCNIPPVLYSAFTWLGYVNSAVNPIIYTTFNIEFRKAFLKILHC
T1 sequence (Q5BJF2 whole entry): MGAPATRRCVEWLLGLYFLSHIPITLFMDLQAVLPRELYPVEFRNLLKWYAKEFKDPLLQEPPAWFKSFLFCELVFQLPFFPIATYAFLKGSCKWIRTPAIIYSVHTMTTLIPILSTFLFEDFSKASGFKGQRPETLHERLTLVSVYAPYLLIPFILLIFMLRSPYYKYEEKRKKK
Opiate μ, sequence (P35372 whole entry): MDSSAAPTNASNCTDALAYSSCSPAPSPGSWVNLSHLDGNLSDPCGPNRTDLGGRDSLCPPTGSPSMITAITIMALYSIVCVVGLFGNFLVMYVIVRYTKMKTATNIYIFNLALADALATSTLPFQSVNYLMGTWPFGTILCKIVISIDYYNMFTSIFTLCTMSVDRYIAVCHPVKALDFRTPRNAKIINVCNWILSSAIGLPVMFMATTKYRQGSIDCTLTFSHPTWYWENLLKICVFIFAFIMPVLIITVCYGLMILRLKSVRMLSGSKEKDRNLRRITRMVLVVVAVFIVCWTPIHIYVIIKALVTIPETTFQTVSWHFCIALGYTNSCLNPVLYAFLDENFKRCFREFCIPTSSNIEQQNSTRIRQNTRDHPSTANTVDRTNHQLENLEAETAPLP

Turning to `NC1(c2ccccc2Cl)CCCCC1=O` (racemic) [NorKetamine, (R,S)-Norketamine], the “Ki, Opioid μ receptors” value at Opiate μ is “does not bind”. Also, the IC50 was found to be 667 µM on Opiate k; 246 µM at Sigma 2 [1]; 6.96 µM on NMDAR 1A/2B (IC50, NMDAR 1A/2B antagonist assay, FIG. 15A); 6.9 µM against NMDAR 1A/2B (NMDAR 1A/2B Ion channel blocker, Table 5). Further, at Opiate k, the Ki came to 381 µM. Further, the “Binding to Dopamine 2 receptors (in words)” value at DRD2L [2] is listed as “does not appear to bind”.
`CNC1(c2ccccc2Cl)CCCCC1=O` (racemic) [Ketamine, (R,S)-ketamine]: the “Binding to sigma2 receptors (in words)” value at Sigma 2 [3] is “binds sigma2 receptors at mM concentrations”. In addition, the “Affinity for dopamine 2 receptors (in words)” value on DRD2L [4] was “not shown any affinity”. Also, the Improvement of survival with Mecp2-null mice (8 mg/kg IP every day for 40 days (total 320 mg/kg), at 80 days post natal) is given as 50%. Further, the “Efficacy of treatment (in words)” value was “some efficacy” in the assay with Mecp2-null mice (8 mg/kg/day ip from day 15 to day 55 (320 mg/kg total)) and “not effective” in the assay on Mecp2-null mice (8 mg/kg/day ip from day 30 to day 55 (200 mg/kg total)). The Survival in the assay on Mecp2-null mice (after treatment with 320 mg/kg of ketamine, published data) is given as 50%.
